From patent US20200390100A1, “SUBSTITUTED N-HETEROCYCLYL- AND N-HETEROARYL-TETRAHYDROPYRIMIDINONES AND THE SALTS THEREOF, AND THE USE OF SAME AS HERBICIDAL ACTIVE SUBSTANCES” (Bayer Aktiengesellschaft, priority 2017, published 2020)

How the values were obtained:
Abutilon theophrasti [1] = assay: Pre-emergence herbicidal action, greenhouse, 320 g/ha; assay type: in vivo; conditions: application rate 320 g/ha, scored visually after about 3 weeks vs untreated controls
Outline: (§1)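 Visual % damage versus untreated pots was read about 3 weeks after treatment, where 0% means growth as in controls and 100% means dead plants. Compounds were applied as WP or EC in water plus 0.5% additive onto the covering soil over freshly sown seeds.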

Alopecurus myosuroides = assay: as above; assay type: in vivo; conditions: application rate 320 g/ha, scored visually after about 3 weeks vs untreated controls
Outline: as §1

Amaranthus retroflexus [2] = assay: as above; assay type: in vivo; conditions: application rate 320 g/ha, scored visually after about 3 weeks vs untreated controls
Outline: as §1

Avena fatua = assay: as above; assay type: in vivo; conditions: application rate 320 g/ha, scored visually after about 3 weeks vs untreated controls
Outline: as §1

Echinochloa crus-galli [3] = assay: as above; assay type: in vivo; conditions: application rate 320 g/ha, scored visually after about 3 weeks vs untreated controls
Outline: as §1

Hordeum murinum = assay: as above; assay type: in vivo; conditions: application rate 320 g/ha, Table B14
Outline: as §1

Matricaria inodora [4] = assay: as above; assay type: in vivo; conditions: application rate 320 g/ha, scored visually after about 3 weeks vs untreated controls
Outline: as §1

Pharbitis purpurea [5] = assay: as above; assay type: in vivo; conditions: application rate 320 g/ha, Table B12
Outline: as §1

Polygonum convolvulus = assay: as above; assay type: in vivo; conditions: application rate 320 g/ha, scored visually after about 3 weeks vs untreated controls
Outline: as §1

Setaria viridis [6] = assay: as above; assay type: in vivo; conditions: application rate 320 g/ha, Table B11
Outline: as §1

Stellaria media [7] = assay: as above; assay type: in vivo; conditions: application rate 320 g/ha, scored visually after about 3 weeks vs untreated controls
Outline: as §1

Viola tricolor = assay: as above; assay type: in vivo; conditions: application rate 320 g/ha, Table B8
Outline: as §1

photosystem II (PS II) = target: T1, photosystem II (PS II) (Spinacia oleracea, UniProt P69560); assay: Measurement of PS II activity in thylakoid membranes (DCPIP reduction); assay type: biochemical, spinach; conditions: PS II activity in spinach thylakoid membranes, Table E1; read-out: Effect
T1 construct: the chloroplasts were osmotically ruptured and the thylakoid membranes were then obtained by centrifugation; from tissue; host or cells: fresh spinach leaves; thylakoid membrane preparation from isolated chloroplasts
Experimental: Cooled fresh spinach leaves were comminuted and homogenized in 50 mM phosphate buffer, pH 6.8. 10 mM KCl, 0.34 M sucrose (sucrose buffer) (blender, 1 g of plant material/ml). The homogenate was subsequently filtered through 4 layers of Miracloth and the chloroplasts were isolated by centrifugation, i.e. 10 min of centrifugation at 4400×g (4° C.). The sediment was suspended in 25 ml of sucrose buffer and re-centrifuged for 10 min at 4400×g (4° C.). The sediment was then suspended in 40 ml of 50 mM phosphate buffer, pH 6.8, 10 mM KCl, without sucrose. In this step, the chloroplasts were osmotically ruptured and the thylakoid membranes were then obtained by centrifugation (10 min, 4400×g, 4° C.). The membrane sediment was finally suspended in about 20 ml of 50 mM phosphate buffer, pH 6.8, 10 mM KCl. Following protein determination and activity determination, the membrane suspension was divided into aliquots and frozen in liquid nitrogen. The aliquots were stored at −80° C. Under these conditions, the photosystem II preparation was storage stable for at least three months. The activity determination of photosystem II (PS II) was then carried out using the following test principle: The electron transfer from PS II to an artificial electron acceptor, 2,6-dichlorophenolindophenol (DCPIP), was measured with exposure to light. The concentration of the blue oxidized form of DCPIP was determined spectrophotometrically at wavelength λ=595 nm. […] The activity determination is carried out in microtiter plates (96 cavities) in a reaction volume of 200 μl. Here, 155 μl of dilute membrane suspension were initially charged in 50 mM of phosphate buffer, pH 6.8, 10 mM KCl. Depending on the activity of the PS II preparation, the dilution was adjusted such that the measurement of the decrease in absorption (λ=595 nm) was linear for at least 10 min. In each case 5 μl solutions of the test compounds of a concentration of 100 μM in DMSO were added to the enzyme suspension; controls contained 5 μl of DMSO; the final concentration of DMSO in the reaction batch was thus 2.5% (v/v); this concentration had no adverse effect on the enzymatic activity. On each microtiter plate, a known PS II inhibitor, for example metribuzin, was used as standard, which allowed the quality of the PS II test to be assessed. The reaction was started by addition of 40 μl DCPIP solution (600 μM in distilled water); the final concentration of DCPIP was 120 μM. Measurement of absorption is carried out over a period of 10 min at 22° C. and with exposure to light. Using metribuzin as comparative substance, the results for the efficacy of the compounds of the general formula (I) at 100 μM are stated in the table below using the following classification: ++++(inhibition≥90%), +++(90%>inhibition≥70%), ++(70%>inhibition≥50%), +(50%>inhibition≥30%).

Amaranthus retroflexus [8] = assay: Herbicidal post-emergence action (Part 2), 1280 g/ha; assay type: in vivo; conditions: application rate 1280 g/ha, rated visually after about 3 weeks, Table C5
Outline: (§2)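 Visual percent damage scored versus untreated plants roughly 3 weeks after treatment, where 100% means plants died. Spray was applied post-emergence to one-leaf-stage weeds raised in sandy loam under greenhouse conditions, using 0.5% additive and 600 L/ha water.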

Stellaria media [9] = assay: as above; assay type: in vivo; conditions: application rate 1280 g/ha, rated visually after about 3 weeks, Table C7
Outline: as §2

Amaranthus retroflexus [10] = assay: Herbicidal pre-emergence action (Part 2), 1280 g/ha; assay type: in vivo; conditions: application rate 1280 g/ha, scored visually after about 3 weeks, Table D6
Outline: (§3)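 Pre-emergence, sandy loam pots, seeds covered with soil. WP/EC formulation + 0.5% additive sprayed on soil surface, 600 L/ha water. Greenhouse ~3 wk; visual % damage vs untreated (100% = dead, 0% = as control).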

Lolium rigidum = assay: as above; assay type: in vivo; conditions: application rate 1280 g/ha, scored visually after about 3 weeks, Table D2
Outline: as §3

Matricaria inodora [11] = assay: as above; assay type: in vivo; conditions: application rate 1280 g/ha, scored visually after about 3 weeks, Table D7
Outline: as §3

Poa annua [12] = assay: as above; assay type: in vivo; conditions: application rate 1280 g/ha, scored visually after about 3 weeks, Table D3
Outline: as §3

Stellaria media [13] = assay: as above; assay type: in vivo; conditions: application rate 1280 g/ha, scored visually after about 3 weeks, Table D8
Outline: as §3

Abutilon theophrasti [14] = assay: Herbicidal post-emergence action (Part 2), 1280 g/ha; assay type: in vivo; conditions: application rate 1280 g/ha, rated visually after about 3 weeks, Table C4
Outline: as §2

Matricaria inodora [15] = assay: as above; assay type: in vivo; conditions: application rate 1280 g/ha, rated visually after about 3 weeks, Table C6
Outline: as §2

Abutilon theophrasti [16] = assay: Herbicidal pre-emergence action (Part 2), 1280 g/ha; assay type: in vivo; conditions: application rate 1280 g/ha, scored visually after about 3 weeks, Table D5
Outline: as §3

Echinochloa crus-galli [17] = assay: as above; assay type: in vivo; conditions: application rate 1280 g/ha, scored visually after about 3 weeks, Table D1
Outline: as §3

Setaria viridis [18] = assay: as above; assay type: in vivo; conditions: application rate 1280 g/ha, scored visually after about 3 weeks, Table D4
Outline: as §3

Echinochloa crus-galli [19] = assay: Herbicidal post-emergence action (Part 2), 1280 g/ha; assay type: in vivo; conditions: post-emergence (Part 2), application rate 1280 g/ha, rated visually after about 3 weeks vs untreated controls
Outline: as §2

Poa annua [20] = assay: as above; assay type: in vivo; conditions: application rate 1280 g/ha, rated visually after about 3 weeks, Table C2
Outline: as §2

Abutilon theophrasti [21] = assay: Post-emergence herbicidal action, greenhouse, 320 g/ha; assay type: in vivo; conditions: application rate 320 g/ha, rated visually after about 3 weeks vs untreated controls
Experimental: (§4) Seeds of monocotyledonous and dicotyledonous weeds and crop plants were placed in sandy loam in plastic or wood-fiber pots, covered with soil and cultivated in a greenhouse under controlled growth conditions. 2 to 3 weeks after sowing, the test plants were treated at the one-leaf stage. The compounds of the invention, formulated in the form of wettable powders (WP) or as emulsion concentrates (EC), were then sprayed onto the green parts of the plants as aqueous suspension or emulsion with addition of 0.5% additive at a water application rate of […] (converted). After the test plants had been kept in the greenhouse under optimum growth conditions for about 3 weeks, the activity of the preparations was rated visually in comparison to untreated controls. For example, 100% activity=the plants have died, 0% activity=like control plants. Tables A1 to A14 below show the effects of selected compounds of the general formula (I) according to Tables 1.1 to 1.150 on various harmful plants and at an application rate corresponding to 320 g/ha, which were obtained by the experimental procedure mentioned above.

Amaranthus retroflexus [22] = assay: as above; assay type: in vivo; conditions: application rate 320 g/ha, rated visually after about 3 weeks vs untreated controls
Experimental: as §4

Pharbitis purpurea [23] = assay: as above; assay type: in vivo; conditions: application rate 320 g/ha, rated visually after about 3 weeks vs untreated controls
Experimental: as §4

Digitaria sanguinalis = assay: as above; assay type: in vivo; conditions: application rate 320 g/ha, rated visually after about 3 weeks vs untreated controls
Experimental: as §4

Matricaria inodora [24] = assay: as above; assay type: in vivo; conditions: application rate 320 g/ha, rated visually after about 3 weeks vs untreated controls
Experimental: as §4

Setaria viridis [25] = assay: as above; assay type: in vivo; conditions: application rate 320 g/ha, rated visually after about 3 weeks vs untreated controls
Experimental: as §4

Stellaria media [26] = assay: as above; assay type: in vivo; conditions: application rate 320 g/ha, rated visually after about 3 weeks vs untreated controls
Experimental: as §4

SMILES | Amaranthus retroflexus (Amaranthus retroflexus [8]) [%] | Stellaria media (Stellaria media [9]) [%] | Amaranthus retroflexus (Amaranthus retroflexus [10]) [%] | Lolium rigidum (Lolium rigidum) [%] | Matricaria inodora (Matricaria inodora [11]) [%] | Poa Annua (Poa annua [12]) [%] | Stellaria media (Stellaria media [13]) [%] | Abutilon theophrasti (Abutilon theophrasti [14]) [%] | Matricaria inodora (Matricaria inodora [15]) [%] | Abutilon theophrasti (Abutilon theophrasti [16]) [%] | Echinochloa crus-galli (Echinochloa crus-galli [17]) [%] | Setaria viridis (Setaria viridis [18]) [%] | other results
CN1CCC(O)N(c2cc(C(C)(C)C)on2)C1=O (stereo not drawn) [I.1-162, 3-(5-tert-Butyl-1,2-oxazol-3-yl)-4-hydroxy-1-methyltetrahydropyrimidin-2(1H)-one] |  |  |  |  |  |  |  |  |  |  |  |  | Abutilon theophrasti (efficacy in %) (Abutilon theophrasti [1]): 100%; Alopecurus myosuroides (efficacy in %) (Alopecurus myosuroides): 90%; Amaranthus retroflexus (efficacy in %) (Amaranthus retroflexus [2]): 100%; Avena fatua (efficacy in %) (Avena fatua): 90%; Echinochloa crus-galli (efficacy in %) (Echinochloa crus-galli [3]): 80%; Hordeum murinum (efficacy in %) (Hordeum murinum): 90%; Matricaria inodora (efficacy in %) (Matricaria inodora [4]): 100%; Pharbitis purpurea (efficacy in %) (Pharbitis purpurea [5]): 80%; Polygonum convolvulus (efficacy in %) (Polygonum convolvulus): 90%; Setaria viridis (efficacy in %) (Setaria viridis [6]): 90%; Stellaria media (efficacy in %) (Stellaria media [7]): 90%; Viola tricolor (efficacy in %) (Viola tricolor): 90%; inhibition at 100 µM (photosystem II (PS II)): > 90%
CC(=O)OC1CCN(C)C(=O)N1c1cc(C(F)(F)F)ccn1 (stereo not drawn) [I.2-449] | 100 | 100 | 100 | 90 | 100 | 100 | 100 |  |  |  |  |  | 
CC(C)C(=O)OC1CCN(C)C(=O)N1c1cc(C(C)(C)C)no1 (stereo not drawn) [I.5-290, 3-(3-tert-Butyl-1,2-oxazol-5-yl)-1-methyl-2-oxohexahydropyrimidin-4-yl 2-methylpropanoate] | 100 | 100 | 100 |  | 90 | 90 | 100 | 100 | 100 | 100 | 90 | 90 | 
CC(C)CC(=O)OC1CCN(C)C(=O)N1c1cc(C(C)(C)C)no1 (stereo not drawn) [I.7-290] | 100 |  | 100 |  | 100 | 90 | 100 | 100 |  | 100 |  |  | Echinochloa crus-galli (Echinochloa crus-galli [19]): 100%
CC(=O)OC1N(c2cc(C(C)(C)C)on2)C(=O)N(C)CC1(C)C (stereo not drawn) [I.62-162] | 100 |  | 100 |  | 100 | 100 | 100 | 100 | 100 | 100 | 90 | 100 | Poa Annua (Poa annua [20]): 100%
CC(C)(C)c1cc(N2C(=O)N3CCCC3CC2O)no1 (stereo not drawn) [I.121-162] |  |  | 100 | 90 | 100 | 100 | 100 |  |  | 100 | 100 | 100 | Abutilon theophrasti (efficacy in %) (Abutilon theophrasti [21]): 80%; Amaranthus retroflexus (efficacy in %) (Amaranthus retroflexus [22]): 100%; Pharbitis purpurea (efficacy in %) (Pharbitis purpurea [23]): 80%
CCCC(=O)OC1CC2CCCN2C(=O)N1c1cc(C(C)(C)C)on1 (stereo not drawn) [I.126-162] | 100 | 100 | 100 | 100 | 100 | 100 | 100 | 100 | 100 | 100 | 100 | 100 | Echinochloa crus-galli (Echinochloa crus-galli [19]): 90%; Poa Annua (Poa annua [20]): 100%
CN1CC(F)(F)C(O)N(c2cc(C(C)(C)C)on2)C1=O (stereo not drawn) [I.141-162] |  |  |  |  |  |  |  |  |  |  |  |  | Abutilon theophrasti (efficacy in %) (Abutilon theophrasti [21]): 100%; Amaranthus retroflexus (efficacy in %) (Amaranthus retroflexus [22]): 90%; Digitaria sanguinalis (efficacy in %) (Digitaria sanguinalis): 100%; Matricaria inodora (efficacy in %) (Matricaria inodora [24]): 80%; Setaria viridis (efficacy in %) (Setaria viridis [25]): 100%; Stellaria media (efficacy in %) (Stellaria media [26]): 100%; Abutilon theophrasti (efficacy in %) (Abutilon theophrasti [1]): 90%; Amaranthus retroflexus (efficacy in %) (Amaranthus retroflexus [2]): 100%; Avena fatua (efficacy in %) (Avena fatua): 80%; Polygonum convolvulus (efficacy in %) (Polygonum convolvulus): 90%; Stellaria media (efficacy in %) (Stellaria media [7]): 100%; Viola tricolor (efficacy in %) (Viola tricolor): 90%
